{
  "source": "patent US8815874B2",
  "about": "“Pyrazolopyrimidine derivative” (Kyowa Hakko Kirin Co., Ltd., priority 2010, dated 2014)",
  "data": [
    {"tested_on": "Dinitrofluorobenzene-Induced Ear Edema Reaction in Mouse", "assay": "Suppressive action on dinitrofluorobenzene-induced ear edema reaction in mouse (Test Example 2, 50% acetone/50% ethanol solvent)", "format": "in vivo", "conditions": "BALE/c mice (female); test compound 1% (w/v %) in 50% acetone/50% ethanol applied to front and back of auricle 1 hr before and 3 hr after induction; auricle thickness 24 hr after induction", "experimental": "(§1) 5-Week old BALE/c mice (female, supplied by CHARLES RIVER LABORATORIES JAPAN, INC) were purchased and, after quarantine and habituation, those showing satisfactory body weight increase and free of abnormal appearance were used to start the test from 7 weeks of age. The animals were housed and bred in plastic cages (6 mice per cage) in a breeding chamber set at room temperature 19-25° C., humidity 30-70%, 12 hr illumination per day (7 a.m.-7 p.m.), with free access to a commercially available solid feed and water.\n(§2) One day before the test, the abdomen was shaved, and a solution of dinitrofluorobenzene (manufactured by Nacalai Tesque) in acetone (manufactured by Wako Pure Chemical Industries, Ltd.) {concentration 0.5% [weight (w)/volume (v) %]} was applied to the shaved part of BALE/c mice by 100 μL for sensitization. On day 5 after sensitization, a dinitrofluorobenzene-acetone solution [concentration 0.2% (w/v %)] was applied to the front and the back of the auricle by 10 μL each (total 20 μL) to induce reaction. A test compound dissolved in 50% acetone/50% ethanol (w/v %) to the concentration of 1% (w/v %) was applied to the front and the back of the auricle 1 hr before and 3 hr after the induction of reaction each by 10 μL (total 20 μL). After the application, the applied part was air-dried by a dryer.\n(§3) A group administered with the test compound by coating was taken as a test compound administration group, and a group administered with 50% acetone/50% ethanol (w/v %) (solvent) by coating instead of the test compound was taken as a solvent administration group. In addition, a group free of sensitization and induction of reaction and administered with 50% acetone/50% ethanol (w/v %) by coating instead of the test compound was taken as a normal group. The thickness of the auricle was measured immediately before induction of reaction and 24 hr after the induction with a dial thickness gauge (manufactured by OZAKI MFG. CO., LTD., G-1A), and the difference between them was taken as ear edema. The ear edema suppressive rate (%) was calculated according to the following formula.", "units": {"ear edema suppressive rate (%)": "%"}, "values": [
      {"smiles": "CONS(=O)(=O)c1cnn2c(Nc3cc(Cl)ccc3Cl)c(C(=O)N3CCC(c4ccc(F)cc4)CC3)cnc12", "note": "[compound a-27, 7-(2,5-dichlorophenylamino)-6-[4-(4-fluorophenyl)piperidine-1-carbonyl]-N-methoxypyrazolo[1,5-a]pyrimidine-3-sulfonamide]", "ear edema suppressive rate (%)": 47},
      {"smiles": "CCC(=O)NS(=O)(=O)c1cnn2c(Nc3cc(C)c(F)cc3Cl)c(C(=O)N3CCC(c4ccc(F)cc4)CC3)cnc12", "note": "[compound a-40, N-{7-(2-chloro-4-fluoro-5-methylphenylamino)-6-[4-(4-fluorophenyl)piperidine-1-carbonyl]pyrazolo[1,5-a]pyrimidin-3-ylsulfonyl}propionamide]", "ear edema suppressive rate (%)": 32},
      {"smiles": "CCC(=O)NS(=O)(=O)c1cnn2c(Nc3cc(C)ccc3Cl)c(C(=O)N3CC4(C3)CN(c3ccc(F)cc3)C4)cnc12", "note": "[compound a-60, N-{7-(2-chloro-5-methylphenylamino)-6-[6-(4-fluorophenyl)-2,6-diazaspiro[3,3]heptane-2-carbonyl]pyrazolo[1,5-a]pyrimidin-3-ylsulfonyl}propionamide]", "ear edema suppressive rate (%)": 5},
      {"smiles": "CCC(=O)NS(=O)(=O)c1cnn2c(Nc3cc(Cl)ccc3Cl)c(C(=O)N3CCC(c4ccc(F)cc4)CC3)cnc12", "note": "[compound a-22, N-{7-(2,5-dichlorophenylamino)-6-[4-(4-fluorophenyl)piperidine-1-carbonyl]pyrazolo[1,5-a]pyrimidin-3-ylsulfonyl}propionamide]", "ear edema suppressive rate (%)": 16}
    ]},
    {"tested_on": "Dinitrofluorobenzene-Induced Ear Edema Reaction in Mouse", "assay": "Suppressive action on dinitrofluorobenzene-induced ear edema reaction in mouse (Test Example 1, acetone solvent)", "format": "in vivo", "conditions": "BALE/c mice (female); test compound 1% (w/v %) in acetone applied to front and back of auricle 1 hr before and 3 hr after induction; auricle thickness 24 hr after induction", "experimental": "as §1, with “5-Week to 6-week” for “5-Week”\nas §2, with “acetone” for “50% acetone/50% ethanol (w/v %)”\nas §3, with “acetone” for “50% acetone/50% ethanol (w/v %)”", "units": {"ear edema suppressive rate (%)": "%"}, "values": [
      {"smiles": "CCNC(=O)NS(=O)(=O)c1cnn2c(Nc3ccc(F)cc3C)c(C(=O)N3CCC4(CC3)OCc3ccccc34)cnc12", "note": "[compound a-43, 7-(4-fluoro-2-methylphenylamino)-N-(ethylcarbamoyl)-6-[3H-spiro(isobenzofuran-1,4′-piperidine)-1-carbonyl]pyrazolo[1,5-a]pyrimidine-3-sulfonamide]", "ear edema suppressive rate (%)": 40},
      {"smiles": "CCNC(=O)NS(=O)(=O)c1cnn2c(Nc3cc(C)ccc3Cl)c(C(=O)N3CCC(c4ccc(F)cc4)CC3)cnc12", "note": "[compound a-14, 7-(2-chloro-5-methylphenylamino)-N-(ethylcarbamoyl)-6-[4-(4-fluorophenyl)piperidine-1-carbonyl]pyrazolo[1,5-a]pyrimidine-3-sulfonamide]", "ear edema suppressive rate (%)": 25},
      {"smiles": "O=C(NS(=O)(=O)c1cnn2c(Nc3ccccc3Cl)c(C(=O)N3CCC(c4ccccc4)CC3)cnc12)C1CC1", "note": "[compound a-6, N-[7-(2-chlorophenylamino)-6-(4-phenylpiperidine-1-carbonyl)pyrazolo[1,5-a]pyrimidin-3-ylsulfonyl]cyclopropanecarboxamide]", "ear edema suppressive rate (%)": 30}
    ]}
  ]
}
